PubChem BioAssay (NCI)
Where “and” joins values, the source holds several entries; their conditions need not be identical. Identical values can stand only once.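 Cells were grown in 96-well plates and exposed to each compound for 48 hours at five concentrations; endpoints were interpolated linearly between bracketing concentrations, or set to the highest concentration if not reached. GI50: concentration for 50% inhibition of growth. TGI marks complete inhibition of growth.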

Tested on: MDA-MB-468 breast
Assay: inhibition of tumour cell growth, NCI panel, 48 h

## N#Cc1c(N2CCOCC2)nc(=S)[nH]c1-c1ccco1
  GI50: 3510 nM
  TGI: > 100000 nM

## CCCCCCCCCCCCCCCCCC[n+]1ccc2c(C)c3c(c(C)c2c1)c1cc(O)ccc1n3CC
  GI50: 628 nM
  TGI: 4110 nM

## CN1C(=O)N(C)C2C1NN=c1s/c(=C\c3ccc(C(F)(F)F)cc3)c(=O)n12 (stereo not drawn)
  GI50: 510 nM
  TGI: 26200 nM

## CCCN(CCS(C)(=O)=O)Cc1ccc(-c2ccc3ncnc(Nc4ccc(OCc5cccc(F)c5)c(Cl)c4)c3c2)o1
  GI50: 75.2 nM
  TGI: 877 nM

## O=C1CCC(N2Cc3cc(CNC(=O)C(F)(F)c4ccc(Cl)cc4)ccc3C2=O)C(=O)N1 (stereo not drawn)
  GI50: 48.1 nM

## Cc1ccc(/C=N\NC(=O)c2[nH]c3ccc(F)cc3c2-c2ccccc2)cc1
  GI50: 24 nM
  TGI: 67.4 nM

## C=CC(=O)Nc1cccc(Oc2nc(Nc3ccc(N4CCN(C)CC4)cc3)nc3ccsc23)c1
  GI50: 267 nM and 570 nM
  TGI: 1750 nM and 3360 nM

## C#Cc1nc(/C=C/CCCCCCC(=O)NO)cs1
  GI50: 2130 nM
  TGI: 8650 nM

## CN1CCN(Cc2ccc(NC(=O)c3cncc(C#Cc4cnc(N)nc4)c3)cc2C(F)(F)F)CC1
  GI50: 684 nM
  TGI: 7660 nM

## CC(C)C[C@H](NC(=O)CNC(=O)c1cc(Cl)ccc1Cl)B1OC(=O)CC(CC(=O)O)(C(=O)O)O1 (stereo partly drawn)
  GI50: 17 nM
  TGI: 38.5 nM

## COc1ccc2cc1Oc1ccc(cc1)C[C@H]1c3c(cc4c(c3Oc3cc5c(cc3OC)CCN(C)[C@@H]5C2)OCO4)CCN1C
  GI50: 593 nM
  TGI: 2310 nM

## COc1ccc(-c2[nH]c3ccccc3c2-c2ccc(OC)cc2)cc1
  GI50: 2430 nM
  TGI: 7180 nM

## CN[C@@H](C)C(=O)N[C@H](C(=O)N1CCC[C@H]1C(=O)Nc1sc(-c2ncco2)nc1-c1ccccc1)C1CCCCC1
  GI50: 11400 nM
  TGI: 35700 nM

## c1cnn2ncc(-c3ccnc(NCCCN4CCOCC4)n3)c2c1
  GI50: 3450 nM
  TGI: 10000 nM

## CC1=C2[C@@H](CC1)[C@]1(C)O[C@@](c3ccccc3)(C[C@H]1OC(=O)CO)[C@H]2OC(=O)/C=C/c1ccccc1
  GI50: 17900 nM
  TGI: 46000 nM

## CN(C)CCCn1c(=O)c2ccccc2c2ccccc21
  GI50: 6180 nM
  TGI: 20100 nM

## FC(F)(F)c1ccc(-c2cnc(-c3ncon3)nc2NC2CCCCCC2)cc1
  GI50: 48500 nM
  TGI: > 100000 nM

## CC(C)NCCCn1c(Sc2cc3c(cc2I)OCO3)nc2c(N)ncnc21
  GI50: 82.7 nM
  TGI: 3620 nM

## CC(C)=CCc1c(O)c(CC=C(C)C)c2c(c1O)C(=O)C1=C[C@@H]3C[C@H]4C(C)(C)O[C@@](C/C=C(\C)C(=O)O)(C3=O)[C@@]14O2
  GI50: 24100 nM
  TGI: 48600 nM

## COc1ccc(-c2nc(Nc3cc(C)[nH]n3)c3ccccc3n2)cc1
  GI50: 3120 nM
  TGI: > 53400 nM

## COc1cc2c(cc1OCCCn1c(-c3ccccn3)nc3ccccc31)N=C[C@@H]1CCCN1C2=O
  GI50: 1940 nM
  TGI: 5640 nM

## O=S(=O)(Nc1cc(Sc2cccc3cccnc23)c(O)c2ccccc12)c1ccc(F)cc1
  GI50: 1800 nM
  TGI: 4080 nM

## O=C(Nc1ccc(OCc2nnc(-c3ccc(Cl)cc3)o2)c(F)c1)Nc1ccc(Cl)c(C(F)(F)F)c1
  GI50: 1800 nM
  TGI: 7370 nM

## CCOc1ccccc1C(=O)N1CCN(c2cc(Cl)cc(Cl)c2)CC1
  GI50: 29.2 nM
  TGI: 2870 nM

## C/C(=C\c1ccc2ccccc2c1)[N+](=O)[O-]
  GI50: 1560 nM
  TGI: 3060 nM

## C[C@@H]1CN(Cc2ccc(F)cc2)[C@@H](C)CN1C(=O)c1cc2c(C(=O)C(=O)N(C)C)cn(C)c2cc1Cl
  GI50: 13300 nM
  TGI: 45000 nM

## O=C1/C(=C/c2ccccc2[N+](=O)[O-])Cc2ccccc21
  GI50: 1380 nM
  TGI: 3030 nM

## Nc1nc(OCc2ccccc2)c2[nH]cnc2n1
  GI50: 28100 nM and 34900 nM
  TGI: 207000 nM

## O=C(/C=C\c1cccc([N+](=O)[O-])c1)/C=C/c1cccc([N+](=O)[O-])c1
  GI50: 3430 nM
  TGI: 55500 nM

## CN1CCN(C(=O)c2cc(-c3ccc4ncnc(N5CCc6cc(F)c(Cl)cc65)c4c3)cnc2N)CC1
  GI50: 120 nM
  TGI: 365 nM

## CCc1ccc2c(c1)N(CCO)C1=C(C(=O)OC1)C2c1cccc(Br)c1 (stereo not drawn)
  GI50: 164 nM
  TGI: 660 nM

## CCCCCCCCCCCCCCCCCC1=NCCN1CCOC1=C(Cl)C(=O)c2ccccc2C1=O
  GI50: 1640 nM
  TGI: 3270 nM

## C1CCC([PH+](C2CCCCC2)C2CCCCC2[PH+](C2CCCCC2)C2CCCCC2)CC1.[Au].[CH-]1CCCCC1CC1CCCC[N-]1 (stereo not drawn)
  GI50: 161 nM
  TGI: 631 nM

## COc1ccc2c(c1)N(CCO)C1=C(C(=O)OC1)C2c1cccc(F)c1 (stereo not drawn)
  GI50: 202 nM

## CO[C@H]1CC(O[C@@H]2/C(C)=C/C[C@@H]3C[C@@H](C[C@]4(C=C[C@H](C)[C@@H](C5CCCCC5)O4)O3)OC(=O)[C@@H]3C=C(C)[C@@H](O)[C@H]4OC/C(=C\C=C\[C@@H]2C)[C@]43O)O[C@@H](C)C1O[C@H]1C[C@H](OC)[C@@H](O)[C@H](C)O1 (stereo partly drawn)
  GI50: 1400 nM
  TGI: 3010 nM

## O=C1OCC2=C1C(c1ccc(Cl)c(Cl)c1)c1cc3c(cc1N2CCO)OCCO3 (stereo not drawn)
  GI50: 95 nM
  TGI: 394 nM

## CNCCCNCCCCNCCCN1C(=O)c2ccc3c4c(ccc(c24)C1=O)C(=O)N(CCCNCc1ccccc1OC)C3=O
  GI50: 1890 nM
  TGI: 11700 nM

## O=C(/C=C/c1cc2ccccc2[nH]c1=O)/C=C/c1cc2ccccc2[nH]c1=O
  GI50: 7330 nM
  TGI: 15500 nM

## O=C1OCC2=C1C(c1ccccc1)c1cc3c(cc1N2)OCO3 (stereo not drawn)
  GI50: 27 nM
  TGI: 600 nM

## O=S(=O)(c1ccc(Cl)cc1)C(Cl)(Cl)Cl
  GI50: 1440 nM
  TGI: 5500 nM

## O=C1c2cccnc2C(=O)c2c1c(C(=O)NCCCN1CCCCC1)c1ccccn21
  GI50: 531 nM
  TGI: 1890 nM

## OCc1ccc(N2CCCC2c2ccccc2)cc1Cl (stereo not drawn)
  GI50: 117 nM
  TGI: 448 nM

## OCC1OC(n2cnc3c(N/N=C\c4ccccn4)ncnc32)C(O)C1O (stereo not drawn)
  GI50: 187 nM
  TGI: 508 nM

## CN=c1ccc2nc3ccc(N)cc3sc-2c1
  GI50: 2900 nM
  TGI: 17100 nM

## O=C1c2c(c3c4ccccc4[nH]c3c3ccc4ccccc4c23)C(=O)N1CCN1CCNCC1
  GI50: 1650 nM
  TGI: 3300 nM
